Patent US6875760B2 (Novo Nordisk A/S, priority 1999, dated 2005)

target: T1, human glucagon receptor (Homo sapiens, UniProt P47871); assay: Glucagon Binding Assay (III); details: BHK cell membranes, WGA SPA beads, 125I-glucagon; read-out: Glu Bd Assay (III) IC50
T1 construct: expressed in transfected cells; host or cells: BHK (baby hamster kidney) cells
Procedure, shortened: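 Non-specific binding was set with 500 nM glucagon in this SPA-type binding assay using WGA beads. The receptor source was a membrane preparation, kept on ice or at 4 °C, from BHK cells transfected with the human receptor. Scintillation counts were taken after 4 hours of shaking and 8–48 hours of settling.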

T1 sequence (P47871 26-477): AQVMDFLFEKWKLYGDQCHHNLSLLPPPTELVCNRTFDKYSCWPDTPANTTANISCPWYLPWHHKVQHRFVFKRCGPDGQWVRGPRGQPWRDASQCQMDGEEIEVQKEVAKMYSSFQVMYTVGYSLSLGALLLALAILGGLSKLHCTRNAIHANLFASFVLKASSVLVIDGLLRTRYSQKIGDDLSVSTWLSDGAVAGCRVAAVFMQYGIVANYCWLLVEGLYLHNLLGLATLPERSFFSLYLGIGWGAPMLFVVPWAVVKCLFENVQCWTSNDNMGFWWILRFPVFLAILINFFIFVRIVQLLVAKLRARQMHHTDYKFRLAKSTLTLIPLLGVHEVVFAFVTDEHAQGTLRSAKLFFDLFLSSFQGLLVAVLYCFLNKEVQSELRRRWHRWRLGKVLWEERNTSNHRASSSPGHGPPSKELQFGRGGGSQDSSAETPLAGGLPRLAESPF

Row | IC50 [nM] | Compound
1 | 149 | CS(=O)(=O)c1ccc(F)c(NC(=O)N(Cc2ccc(C(=O)Nc3nn[nH]n3)cc2)c2ccc(C3CCCCC3)cc2)c1 [Example 260, 4-[1-(4-Cyclohexylphenyl)-3-(2-fluoro-5-methylsulfonylphenyl)ureidomethyl]-N-(2H-tetrazol-5-yl)benzamide]
2 | 302 | Cc1ccc(S(C)(=O)=O)cc1NC(=O)N(Cc1ccc(C(=O)Nc2nn[nH]n2)cc1)c1ccc(C2CCCCC2)cc1 [Example 261, 4-[1-(4-Cyclohexylphenyl)-3-(5-methylsulfonyl-2-methylphenyl)ureidomethyl]-N-(2H-tetrazol-5-yl)benzamide]
3 | 18 | O=C(Nc1nn[nH]n1)c1ccc(CN(C(=O)Nc2cc(F)cc(C(F)(F)F)c2)c2ccc(C3CCCCC3)cc2)cc1 [Example 262, 4-[1-(4-Cyclohexylphenyl)-3-(3-fluoro-5-trifluoromethylphenyl)ureidomethyl]-N-(2H-tetrazol-5-yl)benzamide]
4 | 16 | CC(C)(C)c1ccc(N(Cc2ccc(C(=O)Nc3nn[nH]n3)cc2)C(=O)Nc2cc(Br)cc(C(F)(F)F)c2)cc1 [Example 263, 4-[3-(3-Bromo-5-trifluoromethylphenyl)-1-(4-tert-butylphenyl)ureidomethyl]-N-(2H-tetrazol-5-yl)benzamide]
5 | 9 | O=C(Nc1nn[nH]n1)c1ccc(CN(C(=O)Nc2cc(Br)cc(C(F)(F)F)c2)c2ccc(C3CCCCC3)cc2)cc1 [Example 264, 4-[3-(3-Bromo-5-trifluoromethylphenyl)-1-(4-cyclohexylphenyl)ureidomethyl]-N-(2H-tetrazol-5-yl)benzamide]
6 | 30 | CCN(c1ccccc1)S(=O)(=O)c1cccc(NC(=O)N(Cc2ccc(C(=O)NCCC(=O)O)cc2)c2ccc(C3CCCCC3)cc2)c1 [Example 265, 3-(4-{1-(4-Cyclohexylphenyl)-3-[3-(ethylphenylsulfamoyl)phenyl]ureidomethyl}benzoylamino)propionic acid]
7 | 15 | CN(c1ccccc1)S(=O)(=O)c1cccc(NC(=O)N(Cc2ccc(C(=O)Nc3nn[nH]n3)cc2)c2ccc(C3CCCCC3)cc2)c1 [Example 266, 4-{1-(4-Cyclohexylphenyl)-3-[3-(methylphenylsulfamoyl)phenyl]ureidomethyl}-N-(2H-tetrazol-5-yl)benzamide]
8 | 86 | O=C(Nc1nn[nH]n1)c1ccc(CN(C(=O)Nc2cccc(S(=O)(=O)N3CCc4ccccc43)c2)c2ccc(C3CCCCC3)cc2)cc1 [Example 267, 4-{1-(4-Cyclohexylphenyl)-3-[3-(2,3-dihydroindole-1-sulfonyl)phenyl]ureidomethyl}-N-(2H-tetrazol-5-yl)benzamide]
9 | 21 | O=C(Nc1nn[nH]n1)c1ccc(CN(C(=O)Nc2cc(C(F)(F)F)cc(C(F)(F)F)c2)c2ccc(C3=CCCCC3)cc2)cc1 [Example 268, 4-[3-(3,5-Bis-trifluoromethylphenyl)-1-(4-cyclohex-1-enylphenyl)ureidomethyl]-N-(2H-tetrazol-5-yl)benzamide]
10 | 38 | O=C(Nc1nn[nH]n1)c1ccc(CN(C(=O)Nc2cc(Br)cc(C(F)(F)F)c2)c2ccc(C3=CCCCC3)cc2)cc1 [Example 269, 4-[3-(3-Bromo-5-trifluoromethylphenyl)-1-(4-cyclohex-1-enylphenyl)ureidomethyl]-N-(2H-tetrazol-5-yl)benzamide]
11 | 64 | O=C(Nc1nn[nH]n1)c1ccc(CN(C(=O)NCc2cc(F)cc(C(F)(F)F)c2)c2ccc(C3CCCCC3)cc2)cc1 [Example 270, 4-[1-(4-Cyclohexylphenyl)-3-(3-fluoro-5-trifluoromethylbenzyl)ureidomethyl]-N-(2H-tetrazol-5-yl)benzamide]
12 | 9 | O=C(Nc1nn[nH]n1)c1ccc(CN(C(=O)Nc2cc(C(F)(F)F)cc(C(F)(F)F)c2)c2ccc(C3CCCCC3)cc2)cc1 [Example 271, 4-[3-(3,5-Bis-trifluoromethylphenyl)-1-(4-cyclohexylphenyl)ureidomethyl]-N-(2H-tetrazol-5-yl)benzamide]
13 | 192 | CC(=O)c1ccc(NC(=O)N(Cc2ccc(C(=O)Nc3nn[nH]n3)cc2)c2ccc(C3CCCCC3)cc2)cc1 [Example 272, 4-[3-(4-Acetylphenyl)-1-(4-cyclohexylphenyl)ureidomethyl]-N-(2H-tetrazol-5-yl)benzamide]
14 | 319 | CC(=O)c1ccc(NC(=O)N(Cc2ccc(C(=O)Nc3nn[nH]n3)cc2)C2CCC(C(C)(C)C)CC2)cc1 (stereo not shown) [Example 273, 4-[3-(4-Acetylphenyl)-1-(4-tert-butylcyclohexyl)ureidomethyl]-N-(2H-tetrazol-5-yl)benzamide]
15 | 94 | CC(C)(C)C1CCC(N(Cc2ccc(C(=O)Nc3nn[nH]n3)cc2)C(=O)Nc2cccc(C#N)c2)CC1 (stereo not shown) [Example 274, 4-[1-(4-tert-Butylcyclohexyl)-3-(3-cyanophenyl)ureidomethyl]-N-(2H-tetrazol-5-yl)benzamide]
16 | 101 | CN(C)S(=O)(=O)c1cccc(NC(=O)N(Cc2ccc(C(=O)Nc3nn[nH]n3)cc2)c2ccc(C3CCCCC3)cc2)c1 [Example 275, 4-[1-(4-Cyclohexylphenyl)-3-(3-dimethylsulfamoylphenyl)ureidomethyl]-N-(2H-tetrazol-5-yl)benzamide]
17 | 313 | CN(C)S(=O)(=O)c1cccc(NC(=O)N(Cc2ccc(C(=O)Nc3nn[nH]n3)cc2)c2ccc(C(C)(C)C)cc2)c1 [Example 276, 4-[1-(4-tert-Butylphenyl)-3-(3-dimethylsulfamoylphenyl)ureidomethyl]-N-(2H-tetrazol-5-yl)benzamide]

Row | IC50 [nM] | Compound
18 | 411 | CC(C)(C)c1ccc(N(Cc2ccc(C(=O)Nc3nn[nH]n3)cc2)C(=O)Nc2cccc(S(=O)(=O)N3CCCCC3)c2)cc1 [Example 277]
19 | 88 | O=C(Nc1nn[nH]n1)c1ccc(CN(C(=O)Nc2cccc(SC(F)(F)F)c2)c2ccc(C3CCCCC3)cc2)cc1 [Example 278, 4-[1-(4-Cyclohexylphenyl)-3-(3-trifluoromethylsulfanylphenyl)ureidomethyl]-N-(2H-tetrazol-5-yl)benzamide]
20 | 84 | O=C(Nc1nn[nH]n1)c1ccc(CN(C(=O)Nc2ccccc2)c2ccc(C3CCCCC3)cc2)cc1 [Example 279, 4-[1-(4-Cyclohexylphenyl)-3-phenylureidomethyl]-N-(2H-tetrazol-5-yl)benzamide]
21 | 252 | CCCCc1ccc(N(Cc2ccc(C(=O)Nc3nn[nH]n3)cc2)C(=O)Nc2ccccc2)cc1 [Example 280, 4-[1-(4-Butylphenyl)-3-phenylureidomethyl]-N-(2H-tetrazol-5-yl)benzamide]
22 | 185 | CCCCc1ccc(N(Cc2ccc(C(=O)Nc3nn[nH]n3)cc2)C(=O)Nc2cccc(C#N)c2)cc1 [Example 281, 4-[1-(4-Butylphenyl)-3-(3-cyanophenyl)ureidomethyl]-N-(2H-tetrazol-5-yl)benzamide]
23 | 57 | CC(=O)c1cccc(NC(=O)N(Cc2ccc(C(=O)Nc3nn[nH]n3)cc2)c2ccc(C3CCCCC3)cc2)c1 [Example 283, 4-[3-(3-Acetylphenyl)-1-(4-cyclohexylphenyl)ureidomethyl]-N-(2H-tetrazol-5-yl)benzamide]
24 | 54 | O=C(Nc1nn[nH]n1)c1ccc(CN(C(=O)Nc2ccc(Cl)c(C(F)(F)F)c2)c2ccc(OC(F)(F)F)cc2)cc1 [Example 284, 4-[3-(4-Chloro-3-trifluoromethylphenyl)-1-(4-trifluoromethoxyphenyl)ureidomethyl]-N-(2H-tetrazol-5-yl)benzamide]
25 | 151 | O=C(Nc1nn[nH]n1)c1ccc(CN(C(=O)Nc2cccc([N+](=O)[O-])c2)c2ccc(OC(F)(F)F)cc2)cc1 [Example 285]
26 | 26 | O=C(Nc1nn[nH]n1)c1ccc(CN(C(=O)Nc2cccc([N+](=O)[O-])c2)c2ccc(C3CCCCC3)cc2)cc1 [Example 286, 4-[1-(4-Cyclohexylphenyl)-3-(3-nitrophenyl)ureidomethyl]-N-(2H-tetrazol-5-yl)benzamide]
27 | 52 | CC(C)(C)c1ccc(N(Cc2ccc(C(=O)Nc3nn[nH]n3)cc2)C(=O)Nc2cccc([N+](=O)[O-])c2)cc1 [Example 287, 4-[1-(4-tert-Butylphenyl)-3-(3-nitrophenyl)ureidomethyl]-N-(2H-tetrazol-5-yl)benzamide]
28 | 75 | CCCCc1ccc(N(Cc2ccc(C(=O)Nc3nn[nH]n3)cc2)C(=O)Nc2cccc([N+](=O)[O-])c2)cc1 [Example 288, 4-[1-(4-Butylphenyl)-3-(3-nitrophenyl)ureidomethyl]-N-(2H-tetrazol-5-yl)benzamide]
29 | 27 | CCSc1cccc(NC(=O)N(Cc2ccc(C(=O)Nc3nn[nH]n3)cc2)c2ccc(C3CCCCC3)cc2)c1 [Example 289, 4-[1-(4-Cyclohexylphenyl)-3-(3-ethylsulfanylphenyl)ureidomethyl]-N-(2H-tetrazol-5-yl)benzamide]
30 | 101 | CCC(C)c1ccc(N(Cc2ccc(C(=O)Nc3nn[nH]n3)cc2)C(=O)Nc2cc(C(=O)OC)cc(C(=O)OC)c2)cc1 (stereo not shown) [Example 290]
31 | 42 | O=C(Nc1nn[nH]n1)c1ccc(CN(C(=O)Nc2ccc(OC(F)(F)F)cc2)c2ccc(C3CCCCC3)cc2)cc1 [Example 291, 4-[1-(4-Cyclohexylphenyl)-3-(4-trifluoromethoxyphenyl)ureidomethyl]-N-(2H-tetrazol-5-yl)benzamide]
32 | 106 | CCCCc1ccc(N(Cc2ccc(C(=O)Nc3nn[nH]n3)cc2)C(=O)Nc2ccc(OC(F)(F)F)cc2)cc1 [Example 292, 4-[1-(4-Butylphenyl)-3-(4-trifluoromethoxyphenyl)ureidomethyl]-N-(2H-tetrazol-5-yl)benzamide]
33 | 45 | CSc1cccc(NC(=O)N(Cc2ccc(C(=O)Nc3nn[nH]n3)cc2)c2ccc(C(C)(C)C)cc2)c1 [Example 293, 4-[1-(4-tert-Butylphenyl)-3-(3-methylsulfanylphenyl)ureidomethyl]-N-(2H-tetrazol-5-yl)benzamide]
34 | 50 | CC(C)(C)c1ccc(N(Cc2ccc(C(=O)Nc3nn[nH]n3)cc2)C(=O)Nc2cccc(C(F)(F)F)c2)cc1 [Example 294, 4-[1-(4-tert-Butylphenyl)-3-(3-trifluoromethylphenyl)ureidomethyl]-N-(2H-tetrazol-5-yl)benzamide]
